Assays:
Type in all cases: functional, cell-based
MCF7 [1] = assay: Concentration required to inhibit growth of human tumor MCF-7 (breast) cell line.
A121 = assay: Concentration required to inhibit growth of human tumor A121 (ovarian) cell line.
MCF7 [2] = assay: Concentration required to inhibit growth of human tumor […] (breast) cell line.
HT-29 = assay: Concentration required to inhibit growth of human tumor HT-29 (colon) cell line.
A549 = assay: Concentration required to inhibit growth of human tumor A549 (NSCL) cell line.

Row | SMILES | IC50 (MCF7 [1]) [nM] | IC50 (MCF7 [2]) [nM] | IC50 (HT-29) [nM] | IC50 (A549) [nM] | IC50 (A121) [nM]
1 | CC(=O)O[C@@]12CO[C@@H]1C[C@H](O)[C@@]1(C)C(=O)[C@H](OC(=O)C3CC3)C3=C(C)[C@@H](OC(=O)[C@H](O)[C@H](C=C(C)C)NC(=O)OC(C)(C)C)C[C@@](O)([C@@H](OC(=O)c4ccccc4)[C@H]21)C3(C)C | 0.2 | 2.1 | 0.36 | 0.57 | 0.26
2 | CC(=O)O[C@H]1C(=O)[C@@]2(C)[C@H]([C@H](OC(=O)c3ccccc3)[C@]3(O)C[C@H](OC(=O)[C@H](O)[C@H](CC(C)C)NC(=O)OC(C)(C)C)C(C)=C1C3(C)C)[C@]1(OC(C)=O)CO[C@@H]1C[C@@H]2O | 4 | 36 | 3.2 | 0.98 | 3.8
3 | CO[C@H]1C(=O)[C@@]2(C)[C@H]([C@H](OC(=O)c3ccccc3)[C@]3(O)C[C@H](OC(=O)[C@H](O)[C@H](CC(C)C)NC(=O)OC(C)(C)C)C(C)=C1C3(C)C)[C@]1(OC(C)=O)CO[C@@H]1C[C@@H]2O | 0.33 | 214 | 0.6 | 0.6 | 0.7
4 | CC(=O)O[C@@]12CO[C@@H]1C[C@H](O)[C@@]1(C)C(=O)[C@H](OC(=O)NC3CCCCC3)C3=C(C)[C@@H](OC(=O)[C@H](O)[C@H](C=C(C)C)NC(=O)OC(C)(C)C)C[C@@](O)([C@@H](OC(=O)c4ccccc4)[C@H]21)C3(C)C | 0.33 | 48 | 0.46 | 0.2 | 0.28
5 | CC(=O)O[C@@]12CO[C@@H]1C[C@H](O)[C@@]1(C)C(=O)[C@H](OC(=O)CC(C)(C)C)C3=C(C)[C@@H](OC(=O)[C@H](O)[C@H](C=C(C)C)NC(=O)OC(C)(C)C)C[C@@](O)([C@@H](OC(=O)c4ccccc4)[C@H]21)C3(C)C | 0.4 | 10.5 | 0.5 | 0.5 | 0.34
6 | CCNC(=O)O[C@H]1C(=O)[C@@]2(C)[C@H]([C@H](OC(=O)c3ccccc3)[C@]3(O)C[C@H](OC(=O)[C@H](O)[C@H](C=C(C)C)NC(=O)OC(C)(C)C)C(C)=C1C3(C)C)[C@]1(OC(C)=O)CO[C@@H]1C[C@@H]2O | 0.31 | 162 | 0.41 | 0.15 | 0.29
7 | CC(=O)O[C@@]12CO[C@@H]1C[C@H](O)[C@@]1(C)C(=O)[C@H](OC(=O)NC(C)C)C3=C(C)[C@@H](OC(=O)[C@H](O)[C@H](C=C(C)C)NC(=O)OC(C)(C)C)C[C@@](O)([C@@H](OC(=O)c4ccccc4)[C@H]21)C3(C)C | 0.46 | 65 | 0.52 | 0.36 | 0.34
8 | COC(=O)O[C@H]1C(=O)[C@@]2(C)[C@H]([C@H](OC(=O)c3ccccc3)[C@]3(O)C[C@H](OC(=O)[C@H](O)[C@H](CC(C)C)NC(=O)OC(C)(C)C)C(C)=C1C3(C)C)[C@]1(OC(C)=O)CO[C@@H]1C[C@@H]2O | 0.28 | 6.4 | 0.44 | 0.35 | 0.18
9 | CCCCC(=O)O[C@H]1C(=O)[C@@]2(C)[C@H]([C@H](OC(=O)c3ccccc3)[C@]3(O)C[C@H](OC(=O)[C@H](O)[C@H](C=C(C)C)NC(=O)OC(C)(C)C)C(C)=C1C3(C)C)[C@]1(OC(C)=O)CO[C@@H]1C[C@@H]2O | 0.5 | 30 | 0.6 | 0.6 | 0.6
10 | CCCNC(=O)O[C@H]1C(=O)[C@@]2(C)[C@H]([C@H](OC(=O)c3ccccc3)[C@]3(O)C[C@H](OC(=O)[C@H](O)[C@H](C=C(C)C)NC(=O)OC(C)(C)C)C(C)=C1C3(C)C)[C@]1(OC(C)=O)CO[C@@H]1C[C@@H]2O | 0.36 | 87 | 0.55 | 0.22 | 0.34
11 | CC(=O)O[C@@]12CO[C@@H]1C[C@H](O)[C@@]1(C)C(=O)[C@H](OC(=O)N(C)C)C3=C(C)[C@@H](OC(=O)[C@H](O)[C@H](CC(C)C)NC(=O)OC(C)(C)C)C[C@@](O)([C@@H](OC(=O)c4ccccc4)[C@H]21)C3(C)C | 0.36 | 5.8 | 0.6 | 0.5 | 0.4
12 | CC(=O)O[C@@]12CO[C@@H]1C[C@H](O)[C@@]1(C)C(=O)[C@H](OC(=O)N3CCOCC3)C3=C(C)[C@@H](OC(=O)[C@H](O)[C@H](C=C(C)C)NC(=O)OC(C)(C)C)C[C@@](O)([C@@H](OC(=O)c4ccccc4)[C@H]21)C3(C)C | 0.09 | 12.5 | 0.18 | 0.22 | 0.09
13 | CC(=O)O[C@@]12CO[C@@H]1C[C@H](O)[C@@]1(C)C(=O)[C@H](OC(=O)C3CCCCC3)C3=C(C)[C@@H](OC(=O)[C@H](O)[C@H](C=C(C)C)NC(=O)OC(C)(C)C)C[C@@](O)([C@@H](OC(=O)c4ccccc4)[C@H]21)C3(C)C | 0.46 | 22.3 | 1.05 | 0.75 | 0.5
14 | CC(=O)O[C@H]1C(=O)[C@@]2(C)[C@H]([C@H](OC(=O)c3ccccc3)[C@]3(O)C[C@H](OC(=O)[C@H](O)[C@@H](NC(=O)c4ccccc4)c4ccccc4)C(C)=C1C3(C)C)[C@]1(OC(C)=O)CO[C@@H]1C[C@@H]2O [PACLITAXEL] | – | – | – | – | 6.3

The remaining compounds from weak to strong by IC50 (MCF7 [1]), led by results:

Row | IC50 (MCF7 [1]) [nM] | IC50 (MCF7 [2]) [nM] | IC50 (HT-29) [nM] | IC50 (A549) [nM] | SMILES | IC50 (A121) [nM]
15 | 1.6 | 33 | 5 | 3.7 | CC(=O)O[C@@]12CO[C@@H]1C[C@H](O)[C@@]1(C)C(=O)[C@H](OC(=O)NC3CCCCC3)C3=C(C)[C@@H](OC(=O)[C@H](O)[C@H](CC(C)C)NC(=O)OC(C)(C)C)C[C@@](O)([C@@H](OC(=O)c4ccccc4)[C@H]21)C3(C)C | 5
16 | 0.51 | 4.3 | 0.78 | 1.1 | CC(=O)O[C@@]12CO[C@@H]1C[C@H](O)[C@@]1(C)C(=O)[C@H](OC(=O)C3CC3)C3=C(C)[C@@H](OC(=O)[C@H](O)[C@H](CC(C)C)NC(=O)OC(C)(C)C)C[C@@](O)([C@@H](OC(=O)c4ccccc4)[C@H]21)C3(C)C | 0.51
17 | 0.44 | 76 | 0.53 | 0.35 | C=CCNC(=O)O[C@H]1C(=O)[C@@]2(C)[C@H]([C@H](OC(=O)c3ccccc3)[C@]3(O)C[C@H](OC(=O)[C@H](O)[C@H](C=C(C)C)NC(=O)OC(C)(C)C)C(C)=C1C3(C)C)[C@]1(OC(C)=O)CO[C@@H]1C[C@@H]2O | 0.44
18 | 0.4 | 17.3 | 0.9 | 0.57 | CCCCCC(=O)O[C@H]1C(=O)[C@@]2(C)[C@H]([C@H](OC(=O)c3ccccc3)[C@]3(O)C[C@H](OC(=O)[C@H](O)[C@H](C=C(C)C)NC(=O)OC(C)(C)C)C(C)=C1C3(C)C)[C@]1(OC(C)=O)CO[C@@H]1C[C@@H]2O | 0.5
19 | 0.4 | 20 | 1.2 | 0.7 | CNC(=O)O[C@H]1C(=O)[C@@]2(C)[C@H]([C@H](OC(=O)c3ccccc3)[C@]3(O)C[C@H](OC(=O)[C@H](O)[C@H](C=C(C)C)NC(=O)OC(C)(C)C)C(C)=C1C3(C)C)[C@]1(OC(C)=O)CO[C@@H]1C[C@@H]2O | 1.2
20 | 0.4 | 8.5 | 0.6 | 0.4 | CC(=O)O[C@@]12CO[C@@H]1C[C@H](O)[C@@]1(C)C(=O)[C@H](OC(=O)CC(C)C)C3=C(C)[C@@H](OC(=O)[C@H](O)[C@H](C=C(C)C)NC(=O)OC(C)(C)C)C[C@@](O)([C@@H](OC(=O)c4ccccc4)[C@H]21)C3(C)C | 0.6
21 | 0.37 | 123 | 0.9 | 0.9 | CO[C@H]1C(=O)[C@@]2(C)[C@H]([C@H](OC(=O)c3ccccc3)[C@]3(O)C[C@H](OC(=O)[C@H](O)[C@H](C=C(C)C)NC(=O)OC(C)(C)C)C(C)=C1C3(C)C)[C@]1(OC(C)=O)CO[C@@H]1C[C@@H]2O | 0.7
22 | 0.35 | 2.8 | 0.53 | 0.53 | CCC(=O)O[C@H]1C(=O)[C@@]2(C)[C@H]([C@H](OC(=O)c3ccccc3)[C@]3(O)C[C@H](OC(=O)[C@H](O)[C@H](CC(C)C)NC(=O)OC(C)(C)C)C(C)=C1C3(C)C)[C@]1(OC(C)=O)CO[C@@H]1C[C@@H]2O | 0.41
23 | 0.26 | 3.4 | 0.6 | 1.7 | C/C=C/C(=O)O[C@H]1C(=O)[C@@]2(C)[C@H]([C@H](OC(=O)c3ccccc3)[C@]3(O)C[C@H](OC(=O)[C@H](O)[C@H](C=C(C)C)NC(=O)OC(C)(C)C)C(C)=C1C3(C)C)[C@]1(OC(C)=O)CO[C@@H]1C[C@@H]2O | 0.45
24 | 0.2 | 9.1 | 0.4 | 0.2 | CCN(CC)C(=O)O[C@H]1C(=O)[C@@]2(C)[C@H]([C@H](OC(=O)c3ccccc3)[C@]3(O)C[C@H](OC(=O)[C@H](O)[C@H](C=C(C)C)NC(=O)OC(C)(C)C)C(C)=C1C3(C)C)[C@]1(OC(C)=O)CO[C@@H]1C[C@@H]2O | 0.17
25 | 0.14 | 5.3 | 0.3 | 0.32 | COC(=O)O[C@H]1C(=O)[C@@]2(C)[C@H]([C@H](OC(=O)c3ccccc3)[C@]3(O)C[C@H](OC(=O)[C@H](O)[C@H](C=C(C)C)NC(=O)OC(C)(C)C)C(C)=C1C3(C)C)[C@]1(OC(C)=O)CO[C@@H]1C[C@@H]2O | 0.23
26 | 0.13 | 4.9 | 0.5 | 0.6 | CC(=O)O[C@@]12CO[C@@H]1C[C@H](O)[C@@]1(C)C(=O)[C@H](OC(=O)N(C)C)C3=C(C)[C@@H](OC(=O)[C@H](O)[C@H](C=C(C)C)NC(=O)OC(C)(C)C)C[C@@](O)([C@@H](OC(=O)c4ccccc4)[C@H]21)C3(C)C | 0.3

— ChEMBL document CHEMBL1129422, “Syntheses and structure-activity relationships of the second-generation antitumor taxoids: exceptional activity against drug-resistant cancer cells” (J Med Chem, 1996)
